Assay results from patent publication EP1401829B1, “NOVEL HETEROCYCLIC ANTIBACTERIAL COMPOUNDS” (Microbiotix, Inc., priority 2001, dated 2002).
Converted amounts (≈) assume the structure as drawn. Like-named read-outs stand apart in the source and are kept apart here.

How the values were obtained:
B. subtilis Pol IIIC = biological target: T1, B. subtilis Pol IIIC (Bacillus subtilis, UniProt P13267); assay: Polymerase IIIC (Pol IIIC) assay, determination of Ki values; assay type: biochemical; conditions: Ki (µM) Pol IIIC, assay in absence of dGTP or dATP; Ki is the concentration that reduces control polymerase IIIC activity by 50 percent
T1 construct: made in house
T1 sequence (P13267 whole entry): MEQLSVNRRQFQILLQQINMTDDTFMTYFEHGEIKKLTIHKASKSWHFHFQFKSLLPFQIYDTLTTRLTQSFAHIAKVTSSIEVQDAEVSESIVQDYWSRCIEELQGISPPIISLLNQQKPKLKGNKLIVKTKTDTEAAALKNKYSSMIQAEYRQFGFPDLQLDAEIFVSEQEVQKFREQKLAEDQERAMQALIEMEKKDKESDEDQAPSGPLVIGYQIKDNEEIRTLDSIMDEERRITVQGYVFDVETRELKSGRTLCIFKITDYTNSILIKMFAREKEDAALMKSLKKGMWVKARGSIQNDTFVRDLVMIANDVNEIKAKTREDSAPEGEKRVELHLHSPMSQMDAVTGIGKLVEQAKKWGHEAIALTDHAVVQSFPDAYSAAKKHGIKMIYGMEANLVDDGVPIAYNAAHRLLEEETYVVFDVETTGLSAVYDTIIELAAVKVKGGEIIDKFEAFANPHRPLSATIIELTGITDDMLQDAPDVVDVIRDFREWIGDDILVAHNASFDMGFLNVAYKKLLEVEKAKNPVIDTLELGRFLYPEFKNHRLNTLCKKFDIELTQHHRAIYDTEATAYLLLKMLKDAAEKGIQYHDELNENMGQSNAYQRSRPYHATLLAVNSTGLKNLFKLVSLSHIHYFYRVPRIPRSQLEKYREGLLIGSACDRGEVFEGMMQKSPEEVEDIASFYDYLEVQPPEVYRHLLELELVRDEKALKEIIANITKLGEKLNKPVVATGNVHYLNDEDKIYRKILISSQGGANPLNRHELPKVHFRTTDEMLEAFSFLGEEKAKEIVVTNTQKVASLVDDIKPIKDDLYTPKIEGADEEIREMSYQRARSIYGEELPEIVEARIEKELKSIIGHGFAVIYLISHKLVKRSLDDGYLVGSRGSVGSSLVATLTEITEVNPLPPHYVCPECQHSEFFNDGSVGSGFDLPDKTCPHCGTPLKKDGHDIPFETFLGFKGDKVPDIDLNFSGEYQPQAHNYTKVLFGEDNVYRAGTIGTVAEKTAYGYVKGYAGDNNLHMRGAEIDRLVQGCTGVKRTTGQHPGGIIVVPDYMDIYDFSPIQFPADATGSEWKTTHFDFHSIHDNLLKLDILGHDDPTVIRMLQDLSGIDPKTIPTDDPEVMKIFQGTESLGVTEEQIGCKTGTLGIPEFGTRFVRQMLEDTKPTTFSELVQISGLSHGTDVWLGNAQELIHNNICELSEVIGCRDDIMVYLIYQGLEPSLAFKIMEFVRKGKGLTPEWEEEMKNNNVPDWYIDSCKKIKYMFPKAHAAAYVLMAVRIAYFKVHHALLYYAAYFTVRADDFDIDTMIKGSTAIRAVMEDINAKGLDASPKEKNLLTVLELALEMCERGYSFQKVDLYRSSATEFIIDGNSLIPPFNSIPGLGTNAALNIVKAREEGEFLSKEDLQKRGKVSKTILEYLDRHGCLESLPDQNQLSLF
How it was run: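 Isolated B. subtilis Pol IIIC (0.025–0.06 units) run 10 min at 30°C in 30 mM Tris pH 7.5, 10 mM Mg acetate, 4 mM DTT, 20% glycerol. Substrates were 0.4 mg/ml activated calf thymus DNA, 25 µM dNTPs and 10 µM [3H]dTTP, with dGTP or dATP omitted per compound structure.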

B. subtilis = assay: Minimal Inhibitory Concentration (MIC) determination, 96 well plates; assay type: cell-based, Bacillus subtilis; conditions: Bacillus subtilis; HBI medium, 16 to 18 hours at 37°C; read-out: MIC (µg/ml) B. subtilis
How it was run: (§1)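 Broth growth in Heart-Brain Infusion medium, seeded at about 1x10^5 CFU/ml, 16 to 18 hours at 37°C. Growth read at OD 600 nm as percent of untreated control; five concentrations per drug, five data points each, MIC reported in µg/ml.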

S. aureus = assay: as above; assay type: cell-based, Staphylococcus aureus; conditions: Staphylococcus aureus, read-out: MIC (µg/ml) S. aureus
How it was run: (§2)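 Cultures seeded at approximately 1x10^5 CFU/ml in Heart-Brain Infusion medium were exposed to five compound concentrations, five data points each, for 16 to 18 hours at 37°C. Growth at OD 600 nm was expressed as percent of control, and MIC values are given in µg/ml.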

S.aureus (Smith) = assay: as above; assay type: cell-based, Staphylococcus aureus; conditions: Staphylococcus aureus
How it was run: as §1

E. coli = assay: as above; assay type: cell-based, Escherichia coli; conditions: Escherichia coli; HBI medium, 16 to 18 hours at 37°C; read-out: MIC (µg/ml) E. coli
How it was run: as §2

[1] = HBI medium, 16 to 18 hours at 37°C
[2] = HBI medium, 16 to 18 hours at 37°C, read-out: MIC (µg/ml) S.aureus (Smith)
[3] = table of MSSA/MRSA strains, read-out: MIC (µg/ml) S. aureus (Smith)

Question: Which results are given for `CCc1cc(Nc2cc(=O)n(CCCCN3CCN(c4cc5c(cc4F)c(=O)c(C(=O)O)cn5C4CC4)CC3)c(=O)[nH]2)ccc1C` [Compound 2, 3-{4-[1-(1-cyclopropyl-3-carboxy-4-oxo-6-fluoro-7-quinolyl)-4-piperazinyl]butyl}-6-(3-ethyl-4-methylanilino)uracil]?
Answer: Ki (B. subtilis Pol IIIC): 0.024 µM; MIC (B. subtilis): 0.156 µg/mL (≈ 0.247 µM); MIC (S. aureus; [1]): 0.625 µg/mL (≈ 0.991 µM); MIC (S. aureus; table of MSSA/MRSA strains): 0.625 µg/mL (≈ 0.991 µM); MIC (S.aureus (Smith); [2]): 0.313 µg/mL (≈ 0.496 µM); MIC (S.aureus (Smith); [3]): 0.313 µg/mL (≈ 0.496 µM); MIC (E. coli): 2.5 µg/mL (≈ 3.96 µM)

Question: `CCc1cc(Nc2cc(=O)n(CCCCN3CCN(c4cc5c(cc4F)c(=O)c(C(=O)O)cn5C4CC4)CC3)c(=O)[nH]2)ccc1C.CS(=O)(=O)O` [Compound 10, 3-{4-[1-(1-cyclopropyl-3-carboxy-4-oxo-6-fluoro-7-quinolyl)-4-piperazinyl]butyl}-6-(3-ethyl-4-methylanilino)uracil methanesulfonate] was tested. Which Ki (B. subtilis Pol IIIC) did it give?
Answer: The Ki was 0.018 µM.

Question: And the MIC (B. subtilis)?
Answer: Its MIC is 0.313 µg/mL.

Question: What about the MIC (S. aureus; [1]) of the same compound?
Answer: The MIC was 0.625 µg/mL.

Question: What about the MIC (S. aureus; table of MSSA/MRSA strains) of the same compound?
Answer: The MIC was 0.625 µg/mL.

Question: What about the MIC (S.aureus (Smith); [2]) of the same compound?
Answer: Its MIC is 0.625 µg/mL.

Question: And the MIC (S.aureus (Smith); [3])?
Answer: The MIC was 0.625 µg/mL.

Question: What about the MIC (E. coli) of the same compound?
Answer: Its MIC is 5 µg/mL.

Question: Which Ki (B. subtilis Pol IIIC) does the source give for `CCc1cc(Nc2cc(=O)n(CCCCN3CCN(c4c(F)cc5c(=O)c(C(=O)O)cn(C6CC6)c5c4F)CC3C)c(=O)[nH]2)ccc1C` (stereo not drawn) [Compound 70, 3-{4-[1-(1-cyclopropyl-3-carboxy-4-oxo-6,8-difluoro-7-quinolyl)-3-methyl-4-piperazinyl]butyl}-6-(3-ethyl-4-methylanilino)uracil] here?
Answer: The Ki was 0.019 µM.

Question: And the MIC (B. subtilis)?
Answer: The MIC was 0.156 µg/mL (≈ 0.235 µM).

Question: What about the MIC (S. aureus; [1]) of the same compound?
Answer: Its MIC is 0.313 µg/mL (≈ 0.472 µM).

Question: What about the MIC (S. aureus; table of MSSA/MRSA strains) of the same compound?
Answer: The MIC was 0.39 µg/mL (≈ 0.588 µM).

Question: And the MIC (S.aureus (Smith); [2])?
Answer: Its MIC is 0.156 µg/mL (≈ 0.235 µM).

Question: What about the MIC (S.aureus (Smith); [3]) of the same compound?
Answer: The MIC was 0.21 µg/mL (≈ 0.317 µM).

Question: What about the MIC (E. coli) of the same compound?
Answer: The MIC was > 80 µg/mL.
